The values below come from patent US20260007684A1, “AMIDE DERIVATIVES FOR INHIBITING NLRP3 AND USES THEREOF” (Ventus Therapeutics U.S., Inc., priority 2023, published 2026).

The target of one experiment is human NLRP3 (Homo sapiens (Human), UniProt Q96P20). The experiment can be described thus: Scintillation Proximity (SPA) NLRP3 Assay: displacement of 3H-MCC950. The experiment is classed as binding. As to conditions: SPA IC50, displacement of 3H-MCC950.
Sequence of human NLRP3 (Q96P20 whole entry): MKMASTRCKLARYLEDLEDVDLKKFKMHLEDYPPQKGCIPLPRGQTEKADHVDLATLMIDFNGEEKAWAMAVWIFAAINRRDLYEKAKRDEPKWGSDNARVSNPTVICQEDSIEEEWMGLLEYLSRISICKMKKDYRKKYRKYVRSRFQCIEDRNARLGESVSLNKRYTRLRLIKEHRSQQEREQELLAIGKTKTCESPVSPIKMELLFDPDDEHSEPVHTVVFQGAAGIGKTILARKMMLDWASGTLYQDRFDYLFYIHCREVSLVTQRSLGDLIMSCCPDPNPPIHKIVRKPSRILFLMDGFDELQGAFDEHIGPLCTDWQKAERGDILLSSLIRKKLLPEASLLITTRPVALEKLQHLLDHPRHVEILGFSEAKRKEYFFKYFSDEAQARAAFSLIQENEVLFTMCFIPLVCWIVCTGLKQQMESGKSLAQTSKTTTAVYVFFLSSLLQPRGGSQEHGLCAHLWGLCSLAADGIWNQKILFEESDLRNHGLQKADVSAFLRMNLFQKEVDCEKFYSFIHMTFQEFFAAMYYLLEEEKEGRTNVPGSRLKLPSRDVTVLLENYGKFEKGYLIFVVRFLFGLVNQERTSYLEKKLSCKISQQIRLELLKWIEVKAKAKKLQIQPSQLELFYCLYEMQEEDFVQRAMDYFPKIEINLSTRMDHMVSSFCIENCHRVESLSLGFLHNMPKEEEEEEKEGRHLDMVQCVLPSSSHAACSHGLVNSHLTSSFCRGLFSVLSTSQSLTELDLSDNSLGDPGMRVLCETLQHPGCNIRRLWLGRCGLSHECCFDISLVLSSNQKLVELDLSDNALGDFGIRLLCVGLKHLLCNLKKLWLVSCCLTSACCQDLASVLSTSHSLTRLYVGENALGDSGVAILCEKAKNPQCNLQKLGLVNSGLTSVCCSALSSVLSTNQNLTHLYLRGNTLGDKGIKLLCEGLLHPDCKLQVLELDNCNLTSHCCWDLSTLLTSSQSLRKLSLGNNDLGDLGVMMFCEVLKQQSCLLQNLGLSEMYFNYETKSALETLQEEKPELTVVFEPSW
The compound `C[C@@H]1C[C@H]2CC[C@@H]([C@@H](NC(=O)C3(c4ccc(C(F)(F)F)cc4)CC3)C1)N2c1nnn[nH]1` [104D*, N-((1S,2S,4S,6R)-4-methyl-9-(1H-tetrazol-5-yl)-9-azabicyclo[4.2.1]nonan-2-yl)-1-(4-(trifluoromethyl)phenyl)cyclopropane-1-carboxamide] yielded an IC50 of 10 to 50 µM.
Still for that read-out and setting: the value for `O=C(N[C@H]1CCC[C@H]2CC[C@@H]1N2c1nnn[nH]1)C1(c2ccc(Cl)cc2)CC1` (single isomer, unassigned) [9D*, N-(9-(1H-tetrazol-5-yl)-9-azabicyclo[4.2.1]nonan-2-yl)-1-(4-chlorophenyl)cyclopropane-1-carboxamide] was 10 to 50 µM.

The experiment is the same for the next values; noted with them: displacement of 3H-MCC950; read-out: SPA IC50.
Take `C[C@H]1CC[C@H](NC(=O)C2(c3ccc(Cl)cc3)CC2)CN(c2nnn[nH]2)C1` (single isomer, unassigned) [36B*, 1-(4-chlorophenyl)-N-(6-methyl-1-(1H-tetrazol-5-yl)azepan-3-yl)cyclopropane-1-carboxamide]: the IC50 was 1 to 10 µM.
Same read-out and setting: for `C[C@@H]1CCN(c2nnn[nH]2)C[C@H](NC(=O)C2(c3ccc(C4CCC4)cc3)CC2)C1` (single isomer, unassigned) [8A*, 1-(4-cyclobutylphenyl)-N-(5-methyl-1-(1H-tetrazol-5-yl)azepan-3-yl)cyclopropane-1-carboxamide] the value was 1 to 10 µM; for `C[C@H]1CCN(c2nnn[nH]2)C[C@@H](NC(=O)C2(c3ccc(C(F)F)cc3O)CC2)C1` (single isomer, unassigned) [30D*, 1-(4-(difluoromethyl)-2-hydroxyphenyl)-N-(5-methyl-1-(1H-tetrazol-5-yl)azepan-3-yl)cyclopropane-1-carboxamide], 1 to 10 µM; for `C[C@H]1C[C@H](NC(=O)C2(c3ccc(OC(F)F)cc3)CC2)[C@@H]2CC[C@H]1N2c1nnn[nH]1` (single isomer, unassigned) [35D*], 10 to 50 µM.
Still for that read-out and setting: the value for `C[C@@H]1CCN(c2nnn[nH]2)C[C@@H](NC(=O)C2(c3ccc(C(F)(F)F)c(OC(F)F)c3)CC2)C1` (single isomer, unassigned) [54B*] was 10 to 50 µM; that for `Cc1ccc(C2(C(=O)N[C@H]3C[C@H](C)CCN(c4nnn[nH]4)C3)CC2)c(O)c1F` (single isomer, unassigned) [74B*] was 1 to 10 µM.
In the case of `Cc1cc(C2(C(=O)N[C@@H]3C[C@H](C)CCN(c4nnn[nH]4)C3)CC2)ccc1C(F)(F)F` (single isomer, unassigned) [6A*, N-(5-methyl-1-(1H-tetrazol-5-yl)azepan-3-yl)-1-(3-methyl-4-(trifluoromethyl)phenyl)cyclopropane-1-carboxamide], the IC50 was in the range of 1 to 10 µM.
For the compound `C[C@@H]1CCN(c2nnn[nH]2)C[C@@H](NC(=O)C2(c3ccc(OC(F)F)cc3F)CC2)C1` (single isomer, unassigned) [3B*], the IC50 was in the range of 1 to 10 µM.
On the same count and under the same terms, the value for `Cc1ccc(C2(C(=O)N[C@@H]3C[C@@H](C)CCN(c4nnn[nH]4)C3)CC2)c(O)c1F` (single isomer, unassigned) [74C*] was 10 to 50 µM; that for `Cc1c(Cl)ccc(C2(C(=O)N[C@H]3C[C@@H](C)CCN(c4nnn[nH]4)C3)CC2)c1O` (single isomer, unassigned) [21D*, 1-(4-chloro-2-hydroxy-3-methylphenyl)-N-(5-methyl-1-(1H-tetrazol-5-yl)azepan-3-yl)cyclopropane-1-carboxamide] was 10 to 50 µM.
On the same count and under the same terms, the value for `C[C@H]1CCN(c2nnn[nH]2)C[C@H](NC(=O)C2(c3ccc(C4CC4)c(F)c3O)CC2)C1` (single isomer, unassigned) [32C*, 1-(4-cyclopropyl-3-fluoro-2-hydroxyphenyl)-N-(5-methyl-1-(1H-tetrazol-5-yl)azepan-3-yl)cyclopropane-1-carboxamide] was 50 to 100 µM; that for `C[C@H]1C[C@@H](NC(=O)C2(c3ccc(Cl)cc3)CC2)[C@@H]2CC[C@H]1N2c1nnn[nH]1` [80C*, 1-(4-chlorophenyl)-N-((1S,2R,4S,5R)-4-methyl-8-(1H-tetrazol-5-yl)-8-azabicyclo[3.2.1]octan-2-yl)cyclopropane-1-carboxamide] was above 100 µM; that for `O=C(N[C@H]1CC[C@@H]2CC[C@H]1N2c1nnn[nH]1)C1(c2ccc(C(F)(F)F)cc2O)CC1` (single isomer, unassigned) [34B*] was 1 to 10 µM.
The same measure, in the same setting: the value for `C[C@H]1C[C@@H](NC(=O)C2(c3ccc(C4CC4)c(F)c3O)CC2)[C@@H]2CC[C@H]1N2c1nnn[nH]1` [83C*, 1-(4-cyclopropy1-3-fluoro-2-hydroxyphenyl)-N-((1S,2R,4S,5R)-4-methy1-8-(1H-tetrazol-5-yl)-8-azabicyclo[3.2.1]octan-2-yl)cyclopropane-1-carboxamide] was above 100 µM.
As to `CC(C)c1ccc(C2(C(=O)N[C@H]3C[C@@H](C)CCN(c4nnn[nH]4)C3)CC2)c(O)c1` (single isomer, unassigned) [27D*, 1-(2-hydroxy-4-isopropylphenyl)-N-(5-methyl-1-(1H-tetrazol-5-yl)azepan-3-yl)cyclopropane-1-carboxamide], the 50% inhibitory concentration (IC50) lay in the range of 1 to 10 µM.
Regarding `Cc1ccc(C2(C(=O)N[C@@H]3C[C@@H](C)CCN(c4nnn[nH]4)C3)CC2)c(O)c1` (single isomer, unassigned) [67C*], the half-maximal inhibitory concentration (IC50) lay within 10 to 50 µM.
On the same count and under the same terms, for `C[C@H]1CC[C@@H](NC(=O)C2(c3ccc(Cl)cc3)CC2)CN(c2nnn[nH]2)C1` (single isomer, unassigned) [36A*, 1-(4-chlorophenyl)-N-(6-methyl-1-(1H-tetrazol-5-yl)azepan-3-yl)cyclopropane-1-carboxamide] the value was below 1 µM.
`C[C@@H]1CC[C@H](NC(=O)C2(c3ccc(C4CC4)cc3O)CC2)CN(c2nnn[nH]2)C1` (single isomer, unassigned) [91D*]: the half-maximal inhibitory concentration (IC50) lay in the range of 1 to 10 µM.
On to `C[C@H]1CCN(c2nnn[nH]2)C[C@@H](NC(=O)C2(c3ccc(C4CC4)c(F)c3O)CC2)C1` (single isomer, unassigned) [32D*, 1-(4-cyclopropyl-3-fluoro-2-hydroxyphenyl)-N-(5-methyl-1-(1H-tetrazol-5-yl)azepan-3-yl)cyclopropane-1-carboxamide], for which the IC50 was in the range of 10 to 50 µM.
On the same count and under the same terms, the value for `C[C@H]1CCN(c2nnn[nH]2)C[C@H](NC(=O)C2(c3ccc(Br)cc3)CC2)C1` (single isomer, unassigned) [59C*] was 50 to 100 µM.
Same read-out and setting: the value for `C[C@H]1CCN(c2nnn[nH]2)C[C@H](NC(=O)C2(c3ccc(Cl)cc3O)CC2)C1` (single isomer, unassigned) [60C*] was 1 to 10 µM; that for `C[C@@H]1C[C@H](NC(=O)C2(c3ccc(OC(F)F)cc3)CC2)[C@H]2CC[C@@H]1N2c1nnn[nH]1` (single isomer, unassigned) [35B*] was 50 to 100 µM; that for `O=C(N[C@H]1CN(c2nnn[nH]2)CC[C@H]1F)C1(c2ccc(Cl)cc2)CC1` [Compound 50A, 1-(4-chlorophenyl)-N-[(3S,4R)-4-fluoro-1-(1H-tetrazol-5-yl)-3-piperidyl]cyclopropanecarboxamide] was 10 to 50 µM.
On the same count and under the same terms, for `C[C@@H]1CC[C@@H](NC(=O)C2(c3ccc(Cl)cc3O)CC2)CN(c2nnn[nH]2)C1` (single isomer, unassigned) [90C*] the value was 10 to 50 µM.
On to `C[C@H]1C[C@H](NC(=O)C2(c3ccc(C4CC4(F)F)cc3)CC2)[C@@H]2CC[C@H]1N2c1nnn[nH]1` (single isomer, unassigned) [37D*], for which the IC50 is above 100 µM.
`C[C@H]1CCN(c2nnn[nH]2)C[C@H](NC(=O)C2(c3ccc(SC(F)(F)F)cc3)CC2)C1` (single isomer, unassigned) [69C*]: the IC50 is above 100 µM.
On the same count and under the same terms, the value for `C[C@@H]1CCN(c2nnn[nH]2)C[C@@H](NC(=O)C2(c3ccc(OC(F)(F)F)c(F)c3O)CC2)C1` (single isomer, unassigned) [28B*, 1-(3-fluoro-2-hydroxy-4-(trifluoromethoxy)phenyl)-N-(5-methyl-1-(1H-tetrazol-5-yl)azepan-3-yl)cyclopropane-1-carboxamide] was 1 to 10 µM.
For the compound `O=C(N[C@H]1CC[C@@H]2CC[C@H]1N2c1nnn[nH]1)C1(c2ccc(Cl)c(F)c2O)CC1` [76B*, N-((1R,2S,5R)-8-(1H-tetrazol-5-yl)-8-azabicyclo[3.2.1]octan-2-yl)-1-(4-chloro-3-fluoro-2-hydroxyphenyl)cyclopropane-1-carboxamide], the IC50 lay in the range of 10 to 50 µM.
The same measure, in the same setting: for `C[C@H]1CCN(c2nnn[nH]2)C[C@@H](NC(=O)C2(c3ccc(C(F)(F)F)cc3)CC2)C1` (single isomer, unassigned) [61D*] the value was 10 to 50 µM.
For `C[C@H]1CCN(c2nnn[nH]2)C[C@@H](NC(=O)C2(c3ccc(Cl)cc3Cl)CC2)C1` (single isomer, unassigned) [55D*], the half-maximal inhibitory concentration (IC50) was in the range of 50 to 100 µM.
Turning to `C[C@H]1CCN(c2nnn[nH]2)C[C@@H](NC(=O)C2(c3ccc(OC(F)(F)F)cc3)CC2)C1` (single isomer, unassigned) [57D*], the IC50 fell in the range of 10 to 50 µM.
The same measure, in the same setting: the value for `C[C@H]1CCN(c2nnn[nH]2)C[C@H](NC(=O)C2(c3ccc(OC(F)F)cc3F)CC2)C1` (single isomer, unassigned) [3C*] was above 100 µM; that for `Cc1ccc(C2(C(=O)N[C@H]3C[C@H](C)[C@H]4CC[C@@H]3N4c3nnn[nH]3)CC2)cc1` [87D*, N-((1S,2S,4S,5R)-4-methy1-8-(1H-tetrazol-5-yl)-8-azabicyclo[3.2.1]octan-2-yl)-1-(p-tolyl)cyclopropane-1-carboxamide] was above 100 µM; that for `C[C@H]1CCN(c2nnn[nH]2)C[C@@H](NC(=O)C2(c3ccc(Cl)cc3O)CC2)C1` (single isomer, unassigned) [60D*] was below 1 µM.
For the compound `O=C(N[C@H]1CCC[C@@H]2CC[C@H]1N2c1nnn[nH]1)C1(c2ccc(C(F)(F)F)cc2O)CC1` [88B*, N-((1R,2S,6R)-9-(1H-tetrazol-5-yl)-9-azabicyclo[4.2.1]nonan-2-yl)-1-(2-hydroxy-4-(trifluoromethyl)phenyl)cyclopropane-1-carboxamide], the IC50 is below 1 µM.
Still for that read-out and setting: for `C[C@H]1CCN(c2nnn[nH]2)C[C@@H](NC(=O)C2(c3ccc(OC(F)(F)F)c(F)c3O)CC2)C1` (single isomer, unassigned) [28D*, 1-(3-fluoro-2-hydroxy-4-(trifluoromethoxy)phenyl)-N-(5-methyl-1-(1H-tetrazol-5-yl)azepan-3-yl)cyclopropane-1-carboxamide] the value was 1 to 10 µM.

Broadly, the IC50 is the concentration at which inhibition is half-maximal.
